In US11266710B2, “Angio-3 for treatment of retinal angiogenic diseases” (SINGAPORE HEALTH SERVICES PTE LTD, priority 2017, dated 2022):
Where no end group is shown, it is not given here. [ ]: non-standard residue; d: D form. hArg = N=C(N)NCCCC[C@H](N)C(=O)O

Key:
[1] = system: laser-induced CNV in C57/BL6J (B6J) wild type mice; test: Laser-induced choroidal neovascularization (CNV) model in mice, area of leakage by FFA; type: in vivo; settings: for Area of Leakage (mean) Week 1 / Area of Leakage (mean) Week 4: laser-induced CNV mice; for % Reduction (area of leakage): vehicle control = 0%
Experimental: (§1) FIG. 3A is a schematic of the experimental design on the efficacy of Angio-3 in a laser-induced choroidal neovascularization (CNV) model in mice (B6J WT mice). FIG. 3B are FFA images of baseline and at different time points post treatment. IV single injection of 100 μL of Angio-3 (25 mg/Kg Bwt) was given at Day 0 (prevention mode) and 4 days after laser (regression mode) and followed for 10 weeks. FIG. 3C is a graph showing the area of leakage by each eye for various groups. FIG. 3D are graphs of the mean area of leakage of all batches for each group. […] The attenuation retinal vascularization was better than scrambled peptide. n=6 eyes per batch; n=3 batches. Values are expressed as means±s.e.m., **P<0.01, *P<0.05, student's t-test. FIG. 3E is a graph of the result of the Retinal Function Test that measures ERG changes in Angio-3 treated and control.
FIG. 4A is a schematic of the experimental design on the efficacy of Angio-3 by IVT administration. […]
FIG. 11 A are FFA images of baseline and at different time points post treatment. Mice received single IVT injection of Angio-3 (at a dose of 1 μg in 1 μl or 100 ng in 1 μl), and chemically modified Angio-3 peptides Pep-N (at doses of 5 μg in μl; 1 μg in μl; and 100 ng in 1 μl, respectively) and Pep-Q peptides (at doses of 5 μg in μl; 1 μg in μl; and 100 ng in 1 μl, respectively). FIG. 11 B is a graph of the area of leakage by each eye. Single dose attenuates retinal angiogenesis in laser-induced mice CNV model via IVT route till 4 weeks. […] Eylea is the positive control. n=18 eyes per group; Values are expressed as means±s.e.m. n=3 independent experiment, **P<0.01, *P<0.05, student's t-test.
Laser induced choridal neo-vascularization (CNV) in C57/BL6J (B6J) wild type mice (n=90).
In B6J mice, single injection of 100 μl volume at 25 mg/kg Bwt concentration Angio-3 was injected via intravenous (i/v) route and this was tested in both Preventive mode (before laser) and Regression mode (4 days after laser). […]
Angio-3 was also injected via intravitreal (IVT) route, single injection of 1 μl volume at 2 different doses; 1 μg (High dose) and 100 ng (Low dose).
4 laser photocoagulation sites were placed concentrically around the optic disc of both eyes to induce CNVs. A diode laser (810 nm) was used with a relative potency scale of 120 mW for mice and 250 mW for rats, an exposure time of 0.05 s, and a spot size of […]. Laser spots were focused with crystal covers to avoid laser beam dispersion. Bubble formation was confirmed the rupture of Bruch's membrane.
Fundus photography and fundus fluorescein angiography (FFA) was imaged using a MICRON IV fundus camera (Phoenix Laboratories USA). For FFA, animals were intraperitoneally injected with 10% sodium fluorescein at a dose of 0.01 ml per 5-6 gm body weight.
In B6J mice, single intravitreous (IVT) injection of 100 ng, 1 μg, 5 μg PEP-Q, PEP-N (modified Angio-3), Angio-3 and Eylea were executed and this was tested in Prevention mode (before laser) Method of Llser induced CNV model and injection was described as above.

[2] = system: corneal epithelial wound in wild-type mice; test: Corneal wound healing in a mouse model; type: in vivo; settings: day 0 to Day 5; treated vs control wild-type mice
Text: FIGS. 28A and 28B are images and a graph showing results of testing wound healing in a mouse model. FIG. 28A are representative slitlamp biomicroscopy images of murine cornea following the removal of corneal epithelium from Angio-3 treated and control wild-type mice and topical fluorescein staining of the epithelial defect (green). FIG. 28B is a graph of the percentage of wound defect remaining (vertical axis) over time (horizontal axis) in Angio-3 treated and control wild-type mice, n=6 for each group from 2 independent experiments. Both groups are statistically significant. Angio-3 didn't affect the normal wound healing process. Data is represented as mean±S.D.
Two (2)-mm trephine was used to mark the wound size. Epithelium, basement membrane and some stromal layers were removed by peeling using forceps. Fluorescein staining to the wounded area of cornea was done from day 0 to Day 5 (n=6 mice per group from 2 independent experiments). Gentle and meticulous approach when wounding and handling mouse cornea, fluorescein was diluted, slit lamp images had to be taken within a few seconds after staining. The wound area was quantified by ImageJ software. Student's t-test was used to compare data between two groups; P<0.05 was considered to be significant.

[3] = system: KIBA mice that overexpress hVEGF; test: Retinal function tests (ERG) in KIBA/KIMBA mice overexpressing hVEGF; type: in vivo, mouse; settings: IVT treated; 2nd IVT at 12 weeks after 1st treatment
Experimental: Eight-week-old KIBA mice that overexpress hVEGF were dark-adapted overnight (for at least 12 hours) and all the procedures were carried out under dim red light. Mice were anesthetized with a combination of ketamine (20 mg/kg body weight) and xylazine (2 mg/kg body weight). Pupils were dilated with a topical administration of 1% tropicamide (Alcon Laboratories, Inc., Fort Worth, Tex., USA) and 2.5% phenylephrine (Bausch and Lomb Pharmaceuticals, Inc., Tampa, Fla., USA) ophthalmic solutions.
Animals were placed in ERG recording table with body temperature controller for ERG recordings. Electroretinograms were recorded (Espion; Diagnosys LLC, Lowell, Mass., USA) with corneal monopolar electrodes. A goldcup electrode was placed in the mouth to serve as the reference electrode, and a silver-silver chloride electrode (Grass-Telefactor, West Warwick, R.I., USA) was placed in the tail to serve as the ground electrode. Recordings were performed at a wide range of stimulus intensity (−3.0 to 1.0 log cd·s/m2) in dark-adapted (scotopic) condition. The response a teach flash intensity was an average of at least five trials. […]
ERG was recorded from 8 weeks old to 24 weeks old of mice in untreated group (naïve group). In Angio-3 IVT treated group, ERG was recorded at 8 weeks old as baseline (BL) and then 6 and 12 weeks post treatment. […]

[4] = system: retinal function (a- and b-wave) in B6J WT mice; test: Retinal function test (ERG) in laser-induced CNV mice; type: in vivo, mouse; settings: laser-induced CNV mice with and without Angio-3 treatment
Experimental: as §1
Animals were dark-adapted overnight (12 h), and the preparations for recordings were carried out under dim red light. Anesthesia and pupil dilation were induced as described. Animals were lightly secured to a stage with fastener strips across the upper and lower back to ensure a stable, reproducible position for ERG recordings. […] ERGs were recorded (Espion; Diagnosis LLC, Redwood City, Calif.) with corneal monopolar electrodes (Mayo, Aichi, Japan). […]

[5] = system: corneal neovascularization after alkali-burn injury in mice; test: Corneal neovascularization after alkali-burn injury in mice; type: in vivo, mouse; settings: 1% solution topically 3×/day for 7 days; vs vehicle control
Experimental: Mice were anesthetized with the combination of 80 mg/kg ketamine and 5 mg/kg xylazine. One drop of 1% xylocaine was applied to the corneal surface for local analgesia. Round piece of filter paper, approximately 2 mm in diameter was soaked in a solution of 1 M NaOH. A piece of NaOH soaked filter paper was picked by sterile forceps. NAOH soaked filter paper was placed on the central cornea under microscope to ensure properly placing the filter paper. Left it for 30 sec to generate an acute alkali-burn of approximately 2×2 mm^2 in area. Filter paper was removed and then gently flushed the eye with 10 ml of 1×PBS twice to wash away residual 1 M NaOH. Only one eye of the mouse was injured and the other serving as a control. A drop of 1× Peptide Q (1% solution as test compound) or a vehicle control consisting of PBS was topically applied to the cornea. Repeated application occurred 3×/day for 7 days. At end point, clinical assessment was done as stated below and eyes were enucleated for corneal flat mount.
A daily examination of the mice in a blinded fashion was performed under a surgical microscope and score corneal neo-vascularization (NV) was based on corneal opacity, NV and vessel size. Two observers were scored and record a final score that was the average of the two. Score corneal opacity on a scale of 0-4. […]

[6] = system: laser-induced CNV in Cynomolgus monkeys; test: Laser-induced CNV model in Cynomolgus monkeys (wet AMD model); type: in vivo, Cynomolgus monkey; settings: 2 mg Angio-3, 2 mg and 4 mg PeptideQ, 2 mg Eylea, single IVT
Experimental: FIGS. 25A, 25B, 25C, 25D, 25E, and 25F show the results of testing in a laser-induced chorodial neovascularization (CNV) model in Cynomolgus moneys developed as an experimental model of wet AMD. FIG. 25A is a schematic of the study design. FIG. 25B are representative fundus fluorescein angiography (FFA) images of all groups. FIG. 25C is a graph showing change in mean lesion grade of the eye in monkeys treated with a single dose 2 mg of Angio-3, dose 2 mg of anti-VEGF (Eylea), 2 mg of peptide (Q2) and 4 mg of peptide (Q4) and control. […] FIG. 25E is a graph of laser area quantified from the FFA images by ImageJ software. FIG. 25F are graphs of laser volume quantified from PS-OCT images by ImageJ software.
A laser-induced choroidal neovascularization (CNV) model was developed and validated in Cynomolgus monkeys as experimental model of wet AMD. […] The development of active CNV was assessed by fluorescein angiography, at Day 14 the baseline degree of neovascularization and leakiness were measured and the final fluorescein angiography assessment was performed on Day 28. Leakage area was quantified by ImageJ software. The laser volume was quantified by Spectralis-Heidelberg software using SD-OCT images.

[7] = 100 ng single IVT, prevention mode
[8] = 1 μg single IVT, prevention mode
[9] = 5 μg single IVT, prevention mode

TPHTHNRTPE [Angio-3, Thr Pro His Thr His Asn Arg Thr Pro Glu]
natural wound healing process, menstrual cycle and behavioural change (safety of systemic route) ([1]; mice, IV route): did not affect the natural wound healing process, menstrual cycle and behavioural change | normal corneal wound healing process (percentage of wound defect remaining) [2]: didn't adversely affect the normal wound healing process | ERG a and b-wave responses (retinal function) [3]: increased the a and b-wave responses for 6 weeks post treatment and then again increased the response for 20 weeks with second dose | retinal function (ERG a- and b-wave amplitude) [4]: no significant difference in retinal function

Thr Pro His Thr His Gln Xaa Thr Pro Glu, wherein Xaa is homoarginine (TPHTHQ[hArg]TPE) [PEP-Q, chemically modified Angio-3 peptide]
Area of Leakage (mean) Week 1 [1, 7]: 9987.09 | Area of Leakage (mean) Week 4 [1, 7]: 1283.52 | % Reduction (area of leakage) ([1]; 100 ng single IVT): 48.96% | Area of Leakage (mean) Week 1 [1, 8]: 13444.14 | Area of Leakage (mean) Week 4 [1, 8]: 1271.30 | % Reduction (area of leakage) ([1]; 1 μg single IVT): 52.36% | Area of Leakage (mean) Week 1 [1, 9]: 12839.27 | Area of Leakage (mean) Week 4 [1, 9]: 742.03 | % Reduction (area of leakage) ([1]; 5 μg single IVT): 56.04% | choroidal angiogenesis ([1]; B6J mice, single intravitreal injection at dose 100 ng, 1 g, and 5 μg, prevention mode): significantly attenuates the choroidal angiogenesis | corneal NV area seven days after alkali-burn injury [5]: significantly reduced corneal NV area | comparative efficacy between treatment groups [6]: dose dependent efficacy and higher dose efficacy close to Eylea
